Measurements: patent US9302999B2, “Substituted triazoles as herbicides” (E. I. DU PONT DE NEMOURS AND COMPANY, priority 2012, dated 2016)

Key:
Type in all cases: in vivo
[1] = tested on: crabgrass, large (large crabgrass, Digitaria sanguinalis); experiment: Test A pre-/postemergence: crabgrass, large; conditions: for Crabgrass, Large plant response rating: Postemergence; for Plant response rating, Crabgrass, Large: Preemergence
How it was run: (§1)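 Visual 0–100 injury ratings (0 no effect, 100 complete control) taken about ten days after treatment, relative to untreated controls. Preemergence treatment was a directed soil spray; postemergence plants were 2–10 cm tall at one- to two-leaf stage. Soil: loam/sand blend.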

[2] = tested on: foxtail, giant (giant foxtail, Setaria faberii); experiment: Test A pre-/postemergence: foxtail, giant; conditions: for Foxtail, Giant plant response rating: Postemergence; for Plant response rating, Foxtail, Giant: Preemergence
How it was run: as §1

[3] = tested on: pigweed (Amaranthus retroflexus); experiment: Test A pre-/postemergence: pigweed; conditions: for Pigweed plant response rating: visual rating on 0 to 100 scale (0 no effect, 100 complete control), approximately ten days
How it was run: as §1

[4] = tested on: velvetleaf (Abutilon theophrasti); experiment: Test A pre-/postemergence: velvetleaf; conditions: for Velvetleaf plant response rating: visual rating on 0 to 100 scale (0 no effect, 100 complete control), approximately ten days
How it was run: as §1

[5] = tested on: ducksalad (Heteranthera limosa); experiment: Test B flooded paddy: ducksalad; conditions: Flood; 250 g ai/ha; applied to paddy water at 2-leaf stage; visually evaluated after 13 to 15 days
How it was run: (§2)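 Visual ratings on a 0–100 scale, where 0 means no effect and 100 means complete control, were assigned by comparison with controls 13 to 15 days after treatment. Compounds went into paddy water over 2-leaf plants flooded to 3 cm.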

[6] = tested on: barnyardgrass (Echinochloa crus-galli); experiment: Test B flooded paddy: barnyardgrass; conditions: Flood; 250 g ai/ha; applied to paddy water at 2-leaf stage; visually evaluated after 13 to 15 days
How it was run: as §2

wild oat (Avena fatua) = experiment: Test C pre-/postemergence: wild oat
How it was run: (§3)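 Preemergence on seeds in loam/sand, postemergence on 2–18 cm (1–4-leaf) plants in peat-based medium; compounds in non-phytotoxic solvent with surfactant. After 13–15 days in greenhouse, visual rating versus controls, 0 (no effect) to 100 (complete control).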

[7] = tested on: foxtail, giant (giant foxtail, Setaria faberii); experiment: Test C pre-/postemergence: foxtail, giant
How it was run: as §3

kochia (Kochia scoparia) = experiment: Test C pre-/postemergence: kochia
How it was run: as §3

[8] = tested on: ragweed (common ragweed, Ambrosia elation); experiment: Test C pre-/postemergence: ragweed
How it was run: as §3

[9] = tested on: chickweed (common chickweed, Stellaria media); experiment: Test C postemergence: chickweed
How it was run: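 Visual 0–100 injury score vs untreated controls (0 none, 100 complete control), taken 13–15 d after treatment. Postemergence spray on potted plants, 2–18 cm, 1–4 leaves; greenhouse.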

[10] = 125 g ai/ha, 0 to 100 scale, 0 is no effect, 100 is complete control
[11] = 500 g ai/ha, visual rating on 0 to 100 scale (0 no effect, 100 complete control), approximately ten days
[12] = 125 g ai/ha, 0 to 100 scale where 0 is no effect and 100 is complete control
[13] = 500 g ai/ha, 0 to 100 scale (0 no effect, 100 complete control)
[14] = Postemergence, 125 g ai/ha, 0 to 100 scale, 0 is no effect, 100 is complete control
[15] = Preemergence, 125 g ai/ha, 0 to 100 scale where 0 is no effect and 100 is complete control
[16] = Preemergence, 500 g ai/ha, 0 to 100 scale (0 no effect, 100 complete control)
[17] = Postemergence, 31 g ai/ha, scale 0 to 100 (0 no effect, 100 complete control)
[18] = Postemergence, 62 g ai/ha, scale 0 to 100 (0 no effect, 100 complete control)
[19] = Postemergence, 125 g ai/ha, scale 0 to 100, 0 no effect, 100 complete control
[20] = Postemergence, 250 g ai/ha, scale 0 to 100
[21] = Preemergence, 31 g ai/ha, scale of 0 to 100, 0 is no effect, 100 is complete control
[22] = Preemergence, 62 g ai/ha, scale of 0 to 100, 0 is no effect, 100 is complete control
[23] = Preemergence, 250 g ai/ha, scale 0 to 100, 0 no effect, 100 complete control
[24] = Preemergence, 125 g ai/ha, scale 0 to 100, 0 no effect, 100 complete control
[25] = 31 g ai/ha, scale 0 to 100 (0 no effect, 100 complete control)
[26] = 62 g ai/ha, scale 0 to 100 (0 no effect, 100 complete control)
[27] = 125 g ai/ha, scale 0 to 100, 0 no effect, 100 complete control

SMILES: COc1nn(-c2cccc(F)c2)nc1Cc1ccnc(C(F)(F)F)c1 [Compound 139]
- Crabgrass, Large plant response rating [1, 10]: 90
- Crabgrass, Large plant response rating [1, 11]: 90
- Plant response rating, Crabgrass, Large [1, 12]: 100
- Plant response rating, Crabgrass, Large [1, 13]: 100
- Foxtail, Giant plant response rating [2, 10]: 90
- Foxtail, Giant plant response rating [2, 11]: 100
- Plant response rating, Foxtail, Giant [2, 12]: 100
- Plant response rating, Foxtail, Giant [2, 13]: 100
- Plant response rating, Pigweed [3, 14]: 100
- Pigweed plant response rating ([3]; Postemergence, 500 g ai/ha): 100
- Plant response rating, Pigweed [3, 15]: 100
- Plant response rating, Pigweed [3, 16]: 100
- Plant response rating, Velvetleaf [4, 14]: 90
- Velvetleaf plant response rating ([4]; Postemergence, 500 g ai/ha): 100
- Plant response rating, Velvetleaf [4, 15]: 30
- Plant response rating, Velvetleaf [4, 16]: 90
- Plant response rating, Ducksalad (0 to 100 scale, 0 is no effect, 100 is complete control) [5]: 70
- Plant response rating, Barnyardgrass (0 to 100 scale, 0 is no effect, 100 is complete control) [6]: 65
- Plant response rating, Oat, Wild (wild oat (Avena fatua); [17]): 40
- Plant response rating, Oat, Wild (wild oat (Avena fatua); [18]): 50
- Plant response rating, Oat, Wild (wild oat (Avena fatua); [19]): 60
- Plant response rating, Oat, Wild (wild oat (Avena fatua); [20]): 80
- Plant response rating, Oat, Wild (wild oat (Avena fatua); [21]): 10
- Plant response rating, Oat, Wild (wild oat (Avena fatua); [22]): 50
- Plant response rating, Oat, Wild (wild oat (Avena fatua); [23]): 85
- Plant response rating, Foxtail, Giant [7, 17]: 15
- Plant response rating, Foxtail, Giant [7, 18]: 30
- Plant response rating, Foxtail, Giant [7, 19]: 40
- Plant response rating, Foxtail, Giant [7, 20]: 75
- Plant response rating, Foxtail, Giant [7, 21]: 95
- Plant response rating, Foxtail, Giant [7, 22]: 100
- Plant response rating, Foxtail, Giant [7, 24]: 100
- Plant response rating, Foxtail, Giant [7, 23]: 100
- Plant response rating, Kochia (kochia (Kochia scoparia); [17]): 85
- Plant response rating, Kochia (kochia (Kochia scoparia); [18]): 85
- Plant response rating, Kochia (kochia (Kochia scoparia); [19]): 90
- Plant response rating, Kochia (kochia (Kochia scoparia); [20]): 90
- Plant response rating, Kochia (kochia (Kochia scoparia); [21]): 65
- Plant response rating, Kochia (kochia (Kochia scoparia); [22]): 75
- Plant response rating, Kochia (kochia (Kochia scoparia); [24]): 90
- Plant response rating, Kochia (kochia (Kochia scoparia); [23]): 100
- Plant response rating, Ragweed [8, 18]: 40
- Plant response rating, Ragweed [8, 19]: 45
- Plant response rating, Ragweed [8, 20]: 75
- Plant response rating, Ragweed [8, 21]: 0
- Plant response rating, Ragweed [8, 22]: 0
- Plant response rating, Ragweed [8, 24]: 30
- Plant response rating, Ragweed [8, 23]: 55
- Plant response rating, Chickweed [9, 25]: 75
- Plant response rating, Chickweed [9, 26]: 98
- Plant response rating, Chickweed [9, 27]: 98
- Plant response rating, Chickweed ([9]; 250 g ai/ha, scale 0 to 100): 100

SMILES: Cc1nn(-c2ccnc(Cl)c2)nc1Cc1ccnc(C(F)(F)F)c1 [Compound 141]
- Crabgrass, Large plant response rating [1, 10]: 90
- Crabgrass, Large plant response rating [1, 11]: 90
- Plant response rating, Crabgrass, Large [1, 12]: 100
- Plant response rating, Crabgrass, Large [1, 13]: 100
- Foxtail, Giant plant response rating [2, 10]: 90
- Foxtail, Giant plant response rating [2, 11]: 90
- Plant response rating, Foxtail, Giant [2, 12]: 100
- Plant response rating, Foxtail, Giant [2, 13]: 100
- Plant response rating, Pigweed [3, 14]: 100
- Pigweed plant response rating ([3]; Postemergence, 500 g ai/ha): 100
- Plant response rating, Pigweed [3, 15]: 100
- Plant response rating, Pigweed [3, 16]: 100
- Plant response rating, Velvetleaf [4, 14]: 70
- Velvetleaf plant response rating ([4]; Postemergence, 500 g ai/ha): 90
- Plant response rating, Velvetleaf [4, 15]: 20
- Plant response rating, Velvetleaf [4, 16]: 60
- Plant response rating, Ducksalad (0 to 100 scale, 0 is no effect, 100 is complete control) [5]: 85
- Plant response rating, Barnyardgrass (0 to 100 scale, 0 is no effect, 100 is complete control) [6]: 20
- Plant response rating, Oat, Wild (wild oat (Avena fatua); [17]): 10
- Plant response rating, Oat, Wild (wild oat (Avena fatua); [18]): 15
- Plant response rating, Oat, Wild (wild oat (Avena fatua); [19]): 45
- Plant response rating, Oat, Wild (wild oat (Avena fatua); [20]): 70
- Plant response rating, Foxtail, Giant [7, 17]: 10
- Plant response rating, Foxtail, Giant [7, 18]: 20
- Plant response rating, Foxtail, Giant [7, 19]: 45
- Plant response rating, Foxtail, Giant [7, 20]: 80
- Plant response rating, Kochia (kochia (Kochia scoparia); [17]): 85
- Plant response rating, Kochia (kochia (Kochia scoparia); [18]): 90
- Plant response rating, Kochia (kochia (Kochia scoparia); [19]): 90
- Plant response rating, Kochia (kochia (Kochia scoparia); [20]): 90
- Plant response rating, Ragweed [8, 17]: 60
- Plant response rating, Ragweed [8, 18]: 70
- Plant response rating, Ragweed [8, 20]: 85
- Plant response rating, Chickweed [9, 25]: 80
- Plant response rating, Chickweed [9, 26]: 90
- Plant response rating, Chickweed [9, 27]: 98
- Plant response rating, Chickweed ([9]; 250 g ai/ha, scale 0 to 100): 100
